Reference: ChEMBL document CHEMBL1135872, “Oxyaniliniums as acetylcholinesterase inhibitors for the reversal of neuromuscular block” (Bioorg Med Chem Lett, 2002)

Legend:
Acetylcholinesterase = Acetylcholinesterase (Homo sapiens, UniProt P22303); assay: In vitro inhibitory activity against human recombinant AChE
Cavia porcellus = species: Cavia porcellus; assay: In vitro potency in reversing vecuronium-induced block in guinea pig hemidiaphram; format: functional
Felis catus [1] = assay: Tested for effect on autonomic vagal membrane at dose of 2.1 umol/kg in cat; format: functional
Felis catus [2] = assay: Tested for change in LV pressure at dose of 2.1 umol/kg in cat; format: functional
Felis catus [3] = assay: Tested for change in LV dp/dt at dose of 2.1 umol/kg in cat; format: functional
Felis catus [4] = species: Felis catus; assay: Effective dose required to reverse vecuronium-induced neuromuscular block in cat; format: functional
Felis catus [5] = assay: Tested for change in arterial pressure at dose of 2.1 umol/kg in cat; format: functional, Artery
Felis catus [6] = assay: Tested for change in heart rate at dose of 2.1 umol/kg in cat; format: functional
Felis catus [7] = assay: Tested for effect on nictitating membrane at dose of 2.1 umol/kg in cat; format: functional
Felis catus [8] = assay: Tested for change in LV pressure at dose of 1.026 umol/kg in cat; format: functional
Felis catus [9] = assay: Tested for change in arterial pressure at dose of 1.026 umol/kg in cat; format: functional, Artery
Felis catus [10] = assay: Tested for change in heart rate at dose of 1.026 umol/kg in cat; format: functional
Felis catus [11] = assay: Tested for effect on autonomic vagal membrane at dose of 1.026 umol/kg in cat; format: functional
Felis catus [12] = assay: Tested for change in LV dp/dt at dose of 1.026 umol/kg in cat; format: functional
Felis catus [13] = assay: Tested for effect on nictitating membrane at dose of 1.026 umol/kg in cat; format: functional
Felis catus [14] = assay: Tested for change in LV dp/dt at dose of 1.28 umol/kg in cat; format: functional
Felis catus [15] = assay: Tested for effect on nictitating membrane at dose of 1.28 umol/kg in cat; format: functional
Felis catus [16] = assay: Tested for change in LV pressure at dose of 1.28 umol/kg in cat; format: functional
Felis catus [17] = assay: Tested for change in arterial pressure at dose of 1.28 umol/kg in cat; format: functional, Artery
Felis catus [18] = assay: Tested for change in heart rate at dose of 1.28 umol/kg in cat; format: functional
Felis catus [19] = assay: Tested for effect on autonomic vagal membrane at dose of 1.28 umol/kg in cat; format: functional
Felis catus [20] = assay: Tested for effect on autonomic vagal membrane at dose of 2.56 umol/kg in cat; format: functional
Felis catus [21] = assay: Tested for change in heart rate at dose of 2.56 umol/kg in cat; format: functional
Felis catus [22] = assay: Tested for change in LV dp/dt at dose of 2.56 umol/kg in cat; format: functional
Felis catus [23] = assay: Tested for effect on nictitating membrane at dose of 2.56 umol/kg in cat; format: functional
Felis catus [24] = assay: Tested for change in LV pressure at dose of 2.56 umol/kg in cat; format: functional
Felis catus [25] = assay: Tested for change in arterial pressure at dose of 2.56 umol/kg in cat; format: functional, Artery
Felis catus [26] = assay: Tested for effect on autonomic vagal membrane at dose of 0.076 umol/kg in cat; format: functional
Felis catus [27] = assay: Tested for change in LV pressure at dose of 0.076 umol/kg in cat; format: functional
Felis catus [28] = assay: Tested for effect on nictitating membrane at dose of 0.076 umol/kg in cat; format: functional
Felis catus [29] = assay: Tested for change in LV dp/dt at dose of 0.076 umol/kg in cat; format: functional
Felis catus [30] = assay: Tested for change in arterial pressure at dose of 0.076 umol/kg in cat; format: functional, Artery
Felis catus [31] = assay: Tested for change in heart rate at dose of 0.076 umol/kg in cat; format: functional

Chain of Acetylcholinesterase (P22303 whole entry): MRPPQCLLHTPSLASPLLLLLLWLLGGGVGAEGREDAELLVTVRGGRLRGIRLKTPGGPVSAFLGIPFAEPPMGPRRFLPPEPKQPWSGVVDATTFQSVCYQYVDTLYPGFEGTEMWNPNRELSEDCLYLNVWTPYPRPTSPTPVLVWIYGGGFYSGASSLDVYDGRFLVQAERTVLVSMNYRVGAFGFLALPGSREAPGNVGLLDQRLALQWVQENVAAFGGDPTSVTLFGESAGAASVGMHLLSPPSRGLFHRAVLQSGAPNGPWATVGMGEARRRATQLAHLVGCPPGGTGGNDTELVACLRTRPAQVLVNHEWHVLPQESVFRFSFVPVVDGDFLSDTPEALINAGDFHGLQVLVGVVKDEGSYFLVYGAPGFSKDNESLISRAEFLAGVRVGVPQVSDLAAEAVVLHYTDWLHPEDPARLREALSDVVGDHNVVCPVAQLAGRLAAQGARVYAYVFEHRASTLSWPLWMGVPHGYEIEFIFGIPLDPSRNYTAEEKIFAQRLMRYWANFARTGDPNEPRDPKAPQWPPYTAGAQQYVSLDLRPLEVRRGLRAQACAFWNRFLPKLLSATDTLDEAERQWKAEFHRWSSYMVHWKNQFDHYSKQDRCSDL

Row | Compound | IC50 (Acetylcholinesterase) | IC50 (Cavia porcellus) | further results
1 | COc1ccc(C(=O)COc2ccc([N+](C)(C)C)cc2)cc1OC | 10 µM | 9.8 µM | 
2 | COc1cccc(C[N+](C)(C)C)c1 | > 10 µM |  | 
3 | COc1cccc([N+](C)(C)Cc2ccccc2)c1 | > 10 µM | > 3 µM | 
4 | C=CC[N+](C)(C)c1ccc(O)cc1 | > 10 µM | > 3 µM | 
5 | C[N+](C)(C)Cc1cccc(O)c1 | > 10 µM | > 3 µM | 
6 | COc1cccc(C[N+](C)(C)Cc2ccccc2)c1 | > 10 µM |  | 
7 | C=CC[N+](C)(C)Cc1cccc(OC)c1 | > 10 µM | > 3 µM | 
8 | COc1ccc(C(=O)CCc2cccc([N+](C)(C)C)c2)cc1OC | > 10 µM |  | 
9 | COc1ccc([N+](C)(C)Cc2ccccc2)cc1 | > 10 µM | > 3 µM | 
10 | COc1ccccc1[N+](C)(C)Cc1ccccc1 | > 10 µM | > 3 µM | 
11 | C=CC[N+](C)(C)c1ccccc1O.[Br-] | 1.85 µM | 74 µM | Change (Felis catus [1]): 5%; Change (Felis catus [2]): 12%; Change (Felis catus [3]): 8%; ED50 (Felis catus [4]): 0.5 µmol/kg; Change (Felis catus [5]): 2%; Change (Felis catus [6]): 1%; Change (Felis catus [7]): 5%
12 | C=CC[N+](C)(C)c1cccc(OC)c1 | > 10 µM | > 3 µM | 
13 | COc1ccc(C(=O)COc2ccc([N+](C)(C)Cc3ccccc3)cc2)cc1OC | 10 µM | 19.4 µM | 
14 | COc1ccc(C(=O)CCc2cccc([N+](C)(C)Cc3ccccc3)c2)cc1OC | 1.04 µM | > 3 µM | 
15 | C=CC[N+](C)(C)c1cccc(OC(C)=O)c1 | 1 µM | 3.87 µM | 
16 | COc1ccc(C(=O)CCc2ccc([N+](C)(C)Cc3ccccc3)cc2)cc1OC | 1.3 µM | 4.11 µM | 
17 | C=CC[N+](C)(C)c1ccc(OCC(=O)c2ccc(OC)c(OC)c2)cc1 | 10 µM | 0.5 µM | 
18 | CC[N+](C)(C)c1cccc(O)c1.[Br-] [EDROPHONIUM BROMIDE] |  | 2.77 µM | Change (Felis catus [8]): 23%; Change (Felis catus [9]): 22%; Change (Felis catus [10]): 2%; Change (Felis catus [11]): -67%; Change (Felis catus [12]): 20%; Change (Felis catus [13]): 7%
19 | C=CC[N+](C)(C)c1ccccc1OC.[Br-] | 1 µM | 2.89 µM | Change (Felis catus [14]): 9%; Change (Felis catus [15]): 2%; Change (Felis catus [16]): 9%; Change (Felis catus [17]): 24%; Change (Felis catus [18]): 2%; ED50 (Felis catus [4]): 0.22 µmol/kg; Change (Felis catus [19]): 41%
20 | C[N+](C)(Cc1ccccc1)Cc1cccc(O)c1 | > 10 µM |  | 

Row | Compound | IC50 (Acetylcholinesterase) | IC50 (Cavia porcellus) | further results
21 | C=CC[N+](C)(C)Cc1cccc(O)c1 | > 10 µM | > 3 µM | 
22 | COc1ccc(C(=O)COc2cccc([N+](C)(C)C)c2)cc1OC | 10 µM | 7.08 µM | 
23 | C[N+](C)(Cc1ccccc1)c1cccc(O)c1 | > 10 µM | > 3 µM | 
24 | C=CCC[N+](C)(C)c1ccccc1O | 10 µM | > 10 µM | 
25 | C=CC[N+](C)(C)c1ccc(OC)cc1 | > 10 µM | > 3 µM | 
26 | COc1ccc(C(=O)COc2cccc([N+](C)(C)Cc3ccccc3)c2)cc1OC.[Br-] | 0.33 µM | 1.69 µM | Change (Felis catus [20]): 5%; Change (Felis catus [21]): 8%; Change (Felis catus [22]): 82%; Change (Felis catus [23]): 34%; Change (Felis catus [24]): 63%; Change (Felis catus [25]): 56%
27 | C[N+](C)(Cc1ccccc1)c1ccc(O)cc1 | > 10 µM | > 3 µM | 
28 | CC(=O)Oc1ccccc1[N+](C)(C)Cc1ccccc1 | > 10 µM | > 3 µM | 
29 | CN(C)C(=O)Oc1cccc([N+](C)(C)C)c1.[Br-] [NEOSTIGMINE BROMIDE] |  | 0.028 µM | Change (Felis catus [26]): 62%; Change (Felis catus [27]): -14%; Change (Felis catus [28]): 6%; Change (Felis catus [29]): 12%; Change (Felis catus [30]): 22%; Change (Felis catus [31]): 4%
30 | C=C(C)C[N+](C)(C)c1ccccc1OC | > 10 µM | > 3 µM | 
31 | CC(=O)Oc1cccc([N+](C)(C)Cc2ccccc2)c1 | > 10 µM | > 3 µM | 
32 | C=C(C)C[N+](C)(C)c1ccccc1O | > 10 µM | > 3 µM | 
33 | C=C(C)C[N+](C)(C)c1cccc(O)c1 | > 10 µM | > 3 µM | 
34 | C=CC[N+](C)(C)c1ccc(OC(C)=O)cc1 | > 10 µM | > 3 µM | 
35 | C[N+](C)(Cc1ccccc1)c1ccccc1O | > 10 µM | > 3 µM | 
36 | CC(=O)Oc1ccc([N+](C)(C)Cc2ccccc2)cc1 | > 10 µM | > 3 µM | 
37 | C=CC[N+](C)(C)c1cccc(O)c1 | 3 µM | 13 µM | 
38 | C=C(C)C[N+](C)(C)c1ccc(O)cc1 | > 10 µM | > 3 µM | 
39 | COc1ccc(C(=O)CCc2ccc([N+](C)(C)C)cc2)cc1OC | 3 µM | 2 µM | 
40 | C=C(C)C[N+](C)(C)c1cccc(OC)c1 | > 10 µM | > 3 µM | 
